≈ marks a conversion by molar mass, not a printed value.
How the values were obtained:
MRSA ATCC 43300 [1] = assay: Neutropenic murine thigh infection model; format: in vivo; details: neutropenic mice, 20 mg/kg, 24 h after dosing, n = 6/group
Method: Therefore, the in vivo efficacy of compounds 12c and 22c were assessed using the murine neutropenic thigh infection model. Mice groups treated with saline and tiamulin were chosen as the negative and positive controls.
Model experiments of neutropenic mouse thigh infection were manipulated as described in the literature. Female, six-week-old, specific-pathogen-free mice weighing approximately 23~26 g were used throughout the study. Mice were rendered neutropenic by injection of cyclophosphamide (Mead Johnson Pharmaceuticals, Evansville, IN) on day 4 (150 mg/kg) and day 1 (100 mg/kg) before the experiment. The neutrophil numbers in mice blood should be <0.1 × 10^9/L [34]. In total, 0.1 mL of MH broth of MRSA (10^7 CFU/mL) was inoculated into each thigh of the neutropenic mice. Mice were divided into 4 groups (6 mice per group), including control (sterile saline), compounds 12c, 22c and tiamulin groups. After 3 h post-infection, the corresponding drugs were injected into each mouse’s thigh. Mice were euthanized following intravenous injection for 24 h. Thigh tissue of each mouse was removed, collected, weighed and homogenized in 3 mL of ice sterile saline. Six ten-fold serial dilutions were performed and 25 μL of the bacterial solution from each tube was plated on MH agar plates. The resulting colonies were counted after 24 h incubation at 37 °C. The protocol for this study was reviewed and approved by the Institutional Animal Care and Use Committee of the South China Agricultural University.

Caco-2 cells = assay: Cytotoxicity MTT assay; format: cell-based, human; details: 1~8 μg/mL, 16 h
Method: (§1) The presence of compounds can influence cellular basic physiological processes, suppress proliferation and even reduce cell survival, etc. In the community, MRSA generally causes respiratory infection. Therefore, cytotoxicity was evaluated to explore the effect of compounds 12c and 22c on the viability of the respiratory tract cells 16-HBE (human bronchial epithelial cell line). RAW 264.7 (mouse peritoneal macrophage cell line) and Caco-2 (human epithelial colorectal adenocarcinoma cell line) were also used to evaluate the cytotoxicity of compounds 12c and 22c by MTT assay.
(§2) Cytotoxicity of the test compounds was assessed using the conventional MTT method. RAW 264.7 murine macrophage cells, Caco-2 cells and 16-HBE were used in this experiment. The cells were seeded into 96-well plates at a density of 1.0 × 10^5 cells per well. After 4 h at 37 °C, the cells were treated with compounds 12c and 22c at various concentrations and incubated at 37 °C for 16 h. Next, MTT (0.5 mg/mL in PBS, 100 μL/well) was added sequentially to each well in a humidified atmosphere of 95% air and 5% CO2 incubator and the incubation continued for an additional four hours. After incubation, the medium was peeled off and DMSO (150 μL/well) was added to dissolve the cells, and then the incubation was continued for 30 min. At the end of this period, the absorbance was measured at 490 nm by a microplate spectrophotometer (BIO-TEK Instruments, Winooski, VT, USA).

16-HBE cells = assay: Cytotoxicity MTT assay; format: cell-based, human; details: 1~8 μg/mL, 16 h
Method: as §1, §2

MRSA ATCC 43300 [2] = assay: Post-antibiotic effect (PAE); format: cell-based, Staphylococcus aureus
Method: PAE has been considered as pharmacodynamic assistance which provides a reference for the rational formulation of dosing regimen. PAE refers to the temporary suppression of bacterial growth following transient antibiotic treatment. PAE assays were conducted for compounds 12c and 22c.
PAE is calculated from growth curves on the difference in time required for the number (1 log10 CFU/mL) of drug-exposed and unexposed microbes. […] The PAE values of compounds 12c and 22c increased with increasing incubation time.
PAE of compounds 12c and 22c on MRSA ATCC 43300 was determined using MH broth according to our previous work. The final concentration of MRSA was 1 × 10^6 CFU/mL by dilution with MH broth. Compounds 12c, 22c and tiamulin were supplemented in the suspension at a final concentration of 2 × MIC and 4 × MIC, respectively. The negative control group contained untreated MRSA bacterial cells. The test tubes were incubated with a 37 °C constant temperature vibration incubator for 1 and 2 h. After incubation, the test compound was removed from the sample by diluting 1000-fold with the preheated MH broth. Next, 100 μL of suspension from each culture was 10-fold diluted in sterile saline and inoculated on MH agar plates at 0, 2, 4, 6 and 8 h after inoculation. The number of colonies was calculated after incubation at 37 °C for 24 h. The experiments were performed in triplicate.

MRSA ATCC 43300 [3] = assay: MIC/MBC by broth dilution (CLSI); format: cell-based, Staphylococcus aureus
Summary of the method: (§3)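 CLSI broth dilution used twofold compound series from 64 to 0.0625 µg/mL (stocks in water with 2.5% DMSO and 2.5% Tween-80) and a final inoculum of 5 × 10^5 CFU/mL, in triplicate. For MBC, 25 µL from wells without visible growth was plated on MH agar and cultured 24 h at 37 °C.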

S. aureus 144 = assay: MIC/MBC by broth dilution (CLSI); format: cell-based; details: Staphylococcus aureus; S. aureus 144 (clinical strain)
Summary of the method: as §3

S. aureus AD3 = assay: MIC/MBC by broth dilution (CLSI); format: cell-based; details: Staphylococcus aureus; S. aureus AD3 (clinical strain)
Summary of the method: as §3

S. aureus ATCC 29213 = assay: MIC/MBC by broth dilution (CLSI); format: cell-based; details: Staphylococcus aureus, ATCC29213
Summary of the method: as §3

MRSA ATCC 43300 [4] = assay: Constant concentration time–kill curves; format: cell-based, Staphylococcus aureus
Method: Time–kill kinetic assays were performed, which were used to investigate the in vitro bactericidal kinetic effect of compounds 12c, 19c, 22c and tiamulin.
Time–kill curve assays were established with the MIC value to investigate the antibacterial effect of constant drug concentration on MRSA. […] MRSA ATCC 43300 was incubated in MH broth at 37 °C for 4.5 h and diluted to 1 × 10^6 CFU/mL in MH broth. The saline control group was subjected to the same schedule but 0.9% saline water was added instead of the test compound. All the samples were incubated in an oscillating thermostatic at 37 °C, and then 100 μL of the mixture was extracted to 900 μL of sterile saline (0.9%) at 0, 3, 6, 9, 12 and 24 h, respectively. Samples were serially diluted 10-fold in sterile saline (0.9%) and inoculated onto agar plates. The colonies were counted after incubation at 37 °C for 24 h. Three independent experiments were performed according to our previous work. Time–kill curves were constructed by plotting the log10 CFU per millilitre versus time, and the change in bacterial concentration was determined.

**Q.** With C=C[C@]1(C)C[C@@H](OC(=O)CSc2ccc(Nc3nc(Cl)nc4c3cnn4-c3cccc(C)c3)cc2)[C@]2(C)[C@H](C)CC[C@]3(CCC(=O)[C@H]32)[C@@H](C)[C@@H]1O [Compound 12c, 22-[4-(6-Chloro-1-(3-methylphenyl)-1H-pyrazolo[3,4-d]pyrimidine-4-yl)amino-Phenylsulfanyl]-22-deoxypleuromutilin] as the compound, how does the melting point read?
**A.** 95 to 97 °C

**Q.** And the “reduction of MRSA load in thigh vs growth control” value (MRSA ATCC 43300 [1])?
**A.** −0.79 log10 CFU/mL

**Q.** What about the “effect on viability of Caco-2 cells” value (Caco-2 cells) of the same compound?
**A.** did not affect the viability

**Q.** What about the “effect on viability of 16-HBE cells” value (16-HBE cells) of the same compound?
**A.** did not affect the viability

**Q.** What about the PAE (MRSA ATCC 43300 [2]; 2 × MIC, exposure for 1 h) of the same compound?
**A.** 0.37 h

**Q.** What about the PAE (MRSA ATCC 43300 [2]; 2 × MIC, exposure for 2 h) of the same compound?
**A.** 1.72 h

**Q.** What about the PAE (MRSA ATCC 43300 [2]; 4 × MIC, exposure for 1 h) of the same compound?
**A.** 0.43 h

**Q.** And the PAE (MRSA ATCC 43300 [2]; 4 × MIC, exposure for 2 h)?
**A.** 1.73 h

**Q.** And the MBC (MRSA ATCC 43300 [3]; Staphylococcus aureus, MRSA ATCC 43300, 99.9% of the bacteria killed)?
**A.** 0.5 µg/mL (≈ 0.686 µM)

**Q.** And the MIC (MRSA ATCC 43300 [3]; Staphylococcus aureus, MRSA ATCC 43300, broth dilution, 24 h, 37 °C, read-out: MIC)?
**A.** 0.25 µg/mL (≈ 0.343 µM)

**Q.** And the MBC/MIC ratio (MRSA ATCC 43300 [3]; against MRSA)?
**A.** ≤ 2

**Q.** What about the MBC (S. aureus 144) of the same compound?
**A.** 1 µg/mL (≈ 1.37 µM)

**Q.** What about the MIC (S. aureus 144) of the same compound?
**A.** 0.5 µg/mL (≈ 0.686 µM)

**Q.** And the MBC (S. aureus AD3)?
**A.** 0.25 µg/mL (≈ 0.343 µM)

**Q.** What about the MIC (S. aureus AD3) of the same compound?
**A.** 0.125 µg/mL (≈ 0.172 µM)

**Q.** And the MBC (S. aureus ATCC 29213; S. aureus ATCC 29213)?
**A.** 0.5 µg/mL (≈ 0.686 µM)

**Q.** And the MIC (S. aureus ATCC 29213; S. aureus ATCC 29213, broth dilution, 24 h, 37 °C)?
**A.** 0.25 µg/mL (≈ 0.343 µM)

**Q.** What about the “MRSA killed in time–kill assay” value (MRSA ATCC 43300 [4]; 2 × MIC, 24 h incubation) of the same compound?
**A.** 99.99%

**Q.** And the “reduction of MRSA in time–kill assay” value (MRSA ATCC 43300 [4]; 2 × MIC, 24 h incubation)?
**A.** −4.51 log10 CFU/mL

**Q.** What about the “reduction of MRSA in time–kill assay” value (MRSA ATCC 43300 [4]; 4 × MIC) of the same compound?
**A.** −5.76 log10 CFU/mL

**Q.** What about the “type of bactericidal kinetics” value (MRSA ATCC 43300 [4]; time–kill curves, 1 to 32 × MIC) of the same compound?
**A.** time-dependent
